The results in this text go back to publication PMC6023986, “Interactions Between Emodin and Efflux Transporters on Rat Enterocyte by a Validated Ussing Chamber Technique” (Frontiers in Pharmacology, 2018).

Data set [1] deals with T1, MRP2 (Rattus norvegicus, UniProt Q63120). In words: Ussing chamber bidirectional transport, model validation for MRP2 (pravastatin substrate, MK571 inhibitor). Further details: intestinal segments including duodenum, jejunum, ileum, and colon from anesthetized rats were immediately removed by surgery; from tissue; host or cells: stripped rat intestine (jejunum and ileum in validation; jejunum for the emodin studies). It counts as in vitro ADME. To be noted: rat. An excerpt:
(§1) The four intestinal segments including duodenum, jejunum, ileum, and colon from anesthetized rats were immediately removed by surgery and washed with KRB solution. Each section of the intestinal segments was then placed in cold (on ice), bubbled (O2:CO2 95:5) KRB buffer. The four intestinal segments were then cut into 2 cm pieces, respectively, and serosas were removed by blunt dissection. Peyer’s patches were excluded from the experiment by visually identified. The stripped tissues were mounted in chambers with exposed surface area of 0.49 cm^2. Temperature of the chambers was maintained at 37 ± 0.5°C. Each of the half-cells in the chambers was filled with 5 mL fresh KRB buffer (pH 6.5). Tissue viability was continuously controlled by potential difference (PD).
Digoxin, pravastatin, and teniposide were employed as the test substrates of P-gp, MRP2, and MRP3. […] The experiments were started after 30 min equilibration time, by changing the KRB buffer on both sides; 5 mL KRB solution with different test compounds was filled in the mucosal or serosal compartment; meanwhile, equal volume fresh buffer was added to the other compartment. […] The bidirectional transport studies with specific inhibitors were assessed to validate this model whether or not suitable for P-gp, MRP2, and MRP3 studies.
(§2) Frozen samples were adequately vortexed after thawing at the room temperature; 10 μL suitable IS solution was added to 200 μL samples; 200 μL methanol was added after a thorough vortex mixing for 30 s. The mixtures were then vortexed for 30 s and centrifuged at 15,000 rpm for 30 min. Finally, 5 μL of supernatant was injected into the LC-MS/MS system.
The quantifications of the compounds were performed by the TSQ Quantum Ultra Triple Quadrupole LC-MS/MS system from Thermo Fisher Scientific. […] Adaptive gradient elution methods were applied for the analytes. The flow rate of the mobile phase was kept at 0.2 mL min^-1. Flow was directed to the ion spray interface. All measurements were carried out in negative ESI mode. Ion spray voltage was -2500 V. Vaporizer and capillary temperatures were set at 250 and 350°C, respectively. Auto sampler temperature was set at 10°C. Sheath gas and aux gas were set at 30 and 15 Arb, respectively. […] Peak integrations and calibrations were carried out using LC Quan 2.5.2 software from Thermo Fisher Scientific.
(§3) where Cn (nM) is the concentration of the drug at the time point (n), Q (nM) is the accumulated absorption amount, A is the exposed surface area of the intestine (0.49 cm^2), dQ/dt (nM⋅s^-1) is the amount of the drug transported, and C0 (nM) is the initial concentration of the test drug. Experiments were performed in batches, so control groups were set as one for each batch.

Data set [2] deals with T1, MRP2. In words: Influence of emodin on MRP2 function: pravastatin bidirectional transport in the presence of emodin (Ussing chamber). It is filed as in vitro ADME. Further details: intestinal segments including duodenum, jejunum, ileum, and colon from anesthetized rats were immediately removed by surgery; from tissue; host or cells: stripped rat intestine (jejunum and ileum in validation; jejunum for the emodin studies). To be noted: rat jejunum; for Papp at 47 μM: rat.
Excerpt: as §1, with “(PD). Tissue with electrical values less than 2 mV was refused ([Moazed and Hiebert, 2007]; [Heinen et al., 2013]).” for “(PD).”
In this study, the effects of the three efflux transporters on emodin intestinal absorption were investigated. Meanwhile, the influence of emodin on intestinal P-gp, MRP2, and MRP3 functions were also discussed. Solutions with three concentrations (low, middle, and high) of emodin were filled in the mucosal or serosal compartment to measure the bidirectional transport characteristic. […] In the emodin impact experiments, digoxin, pravastatin, and teniposide were employed as P-gp, MRP2, and MRP3 substrates. Changes of the bidirectional transport characteristic were measured before and after adding emodin to the mucosal side.
as §2
The quantifications of the compounds were performed by the TSQ Quantum Ultra Triple Quadrupole LC-MS/MS system from Thermo Fisher Scientific. Chromatography was carried out using an Agilent Poroshell 120 SB-C18 (2.7 μm, 2.1 mm × 100 mm) column with a Phenomenex AFO-8497 C18 pre-column, operating at 30°C. Adaptive gradient elution methods were applied for the analytes. The flow rate of the mobile phase was kept at 0.2 mL min^-1. Flow was directed to the ion spray interface. All measurements were carried out in negative ESI mode. Ion spray voltage was -2500 V. Vaporizer and capillary temperatures were set at 250 and 350°C, respectively. Auto sampler temperature was set at 10°C. Sheath gas and aux gas were set at 30 and 15 Arb, respectively. […] Peak integrations and calibrations were carried out using LC Quan 2.5.2 software from Thermo Fisher Scientific.
The Q (accumulative quantity), Papp (apparent permeability), Er (efflux ratio), Pr (Papp ratio), and Err (Er ratio) across the excited rat intestinal segments in the Ussing chamber were calculated using the following equations ([Li et al., 2012]; [Huang et al., 2016]): […]
as §3

Read-outs that look alike come from different tables or passages of the source.

T1 sequence (Q63120 whole entry): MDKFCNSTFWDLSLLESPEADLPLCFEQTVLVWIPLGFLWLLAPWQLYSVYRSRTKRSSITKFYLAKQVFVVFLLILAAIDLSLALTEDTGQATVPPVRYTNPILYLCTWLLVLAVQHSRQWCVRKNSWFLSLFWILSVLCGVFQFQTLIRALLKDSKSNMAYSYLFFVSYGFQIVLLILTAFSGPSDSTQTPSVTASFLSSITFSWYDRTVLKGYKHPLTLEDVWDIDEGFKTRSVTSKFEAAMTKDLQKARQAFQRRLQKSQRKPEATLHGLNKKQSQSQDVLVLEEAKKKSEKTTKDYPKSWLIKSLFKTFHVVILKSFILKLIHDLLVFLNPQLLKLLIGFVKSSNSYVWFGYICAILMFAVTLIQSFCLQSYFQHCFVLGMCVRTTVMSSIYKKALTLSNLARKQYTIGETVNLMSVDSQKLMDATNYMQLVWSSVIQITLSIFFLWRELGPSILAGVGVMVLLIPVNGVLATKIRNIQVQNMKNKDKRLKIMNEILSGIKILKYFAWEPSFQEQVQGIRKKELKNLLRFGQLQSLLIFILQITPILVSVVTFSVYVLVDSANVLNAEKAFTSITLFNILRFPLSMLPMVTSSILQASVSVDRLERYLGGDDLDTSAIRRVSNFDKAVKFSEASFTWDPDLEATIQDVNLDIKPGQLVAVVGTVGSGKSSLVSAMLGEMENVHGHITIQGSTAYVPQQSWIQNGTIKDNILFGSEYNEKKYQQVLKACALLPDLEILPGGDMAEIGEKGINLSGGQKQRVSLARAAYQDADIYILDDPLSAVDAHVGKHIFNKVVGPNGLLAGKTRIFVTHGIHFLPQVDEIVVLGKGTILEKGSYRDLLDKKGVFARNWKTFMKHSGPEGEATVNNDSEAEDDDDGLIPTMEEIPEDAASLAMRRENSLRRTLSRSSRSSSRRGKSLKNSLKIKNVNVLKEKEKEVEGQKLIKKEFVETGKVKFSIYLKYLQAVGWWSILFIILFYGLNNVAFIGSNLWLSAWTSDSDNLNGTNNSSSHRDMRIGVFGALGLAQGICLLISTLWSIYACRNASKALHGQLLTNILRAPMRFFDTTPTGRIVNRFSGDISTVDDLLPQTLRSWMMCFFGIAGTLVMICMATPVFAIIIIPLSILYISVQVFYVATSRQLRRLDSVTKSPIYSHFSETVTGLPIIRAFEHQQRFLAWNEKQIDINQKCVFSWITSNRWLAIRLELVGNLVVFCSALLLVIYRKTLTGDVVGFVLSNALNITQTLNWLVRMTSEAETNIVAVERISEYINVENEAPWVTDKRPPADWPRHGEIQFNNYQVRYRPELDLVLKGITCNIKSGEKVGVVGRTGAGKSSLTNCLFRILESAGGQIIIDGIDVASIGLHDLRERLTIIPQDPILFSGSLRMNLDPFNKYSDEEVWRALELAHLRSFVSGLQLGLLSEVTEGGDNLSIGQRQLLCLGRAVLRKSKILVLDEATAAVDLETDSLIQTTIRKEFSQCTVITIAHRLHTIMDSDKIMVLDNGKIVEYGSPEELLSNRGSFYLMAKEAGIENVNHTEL

By Papp is commonly meant the rate of passage across a membrane or cell layer, normalised by area and donor concentration. For the compound `CC[C@H](C)C(=O)O[C@H]1C[C@H](O)C=C2C=C[C@H](C)[C@H](CC[C@@H](O)C[C@@H](O)CC(=O)O)[C@H]21` [Pravastatin], the Papp in data set [1] (pH 6.5, rat duodenum, without inhibitor, read-out: Papp M-S, control) was 124 ± 67.3 ×10⁻⁶ cm/s; in data set [1] (pH 6.5, rat duodenum, without inhibitor, read-out: Papp S-M, control), 287 ± 165 ×10⁻⁶ cm/s; in data set [1] (pH 6.5, rat ileum, without inhibitor, read-out: Papp M-S, control), 122 ± 52.5 ×10⁻⁶ cm/s; in data set [1] (pH 6.5, rat ileum, without inhibitor, read-out: Papp S-M, control) it was 678 ± 325 ×10⁻⁶ cm/s; in data set [1] (pH 6.5, rat jejunum, without inhibitor, read-out: Papp M-S, control) it was 146 ± 39.4 ×10⁻⁶ cm/s; in data set [1] (pH 6.5, rat jejunum, without inhibitor, read-out: Papp S-M, control), 496 ± 226 ×10⁻⁶ cm/s. Also, the Papp is 127 ± 33.4 ×10⁻⁶ cm/s in data set [1] (pH 6.5, with MK571 186 μM on mucosal side, rat jejunum, with MK571 186 μM on mucosal side, read-out: Papp S-M, with inhibitor); 77.9 ± 14.8 ×10⁻⁶ cm/s in data set [1] (pH 6.5, with MK571 186 μM, mucosal side, rat duodenum, with MK571 186 μM on mucosal side, read-out: Papp M-S, with inhibitor); 112 ± 52.7 ×10⁻⁶ cm/s in data set [1] (pH 6.5, with MK571 186 μM, mucosal side, rat duodenum, with MK571 186 μM on mucosal side, read-out: Papp S-M, with inhibitor); 124 ± 67.9 ×10⁻⁶ cm/s in data set [1] (pH 6.5, with MK571 186 μM, mucosal side, rat ileum, with MK571 186 μM on mucosal side, read-out: Papp M-S, with inhibitor); 224 ± 141 ×10⁻⁶ cm/s in data set [1] (pH 6.5, with MK571 186 μM, mucosal side, rat ileum, with MK571 186 μM on mucosal side, read-out: Papp S-M, with inhibitor); 107 ± 26.8 ×10⁻⁶ cm/s in data set [1] (pH 6.5, with MK571 186 μM, mucosal side, rat jejunum, with MK571 186 μM on mucosal side, read-out: Papp M-S, with inhibitor). In addition, the “Change of Papp and Er values of pravastatin after emodin added” value in data set [2] (pravastatin 47 μM, emodin 185, 370, 740 μM) is recorded as “No significant differences”. The Papp at 47 μM was 64.5 ± 27.9 ×10⁻⁶ cm/s in data set [2] (pH 6.5, pravastatin 47 μM, without emodin, read-out: Papp M-S, control); 82.2 ± 40.4 ×10⁻⁶ cm/s in data set [2] (pH 6.5, pravastatin 47 μM, without emodin, read-out: Papp S-M, control); 123 ± 19.9 ×10⁻⁶ cm/s in data set [2] (pH 6.5, with emodin 185 μM on mucosal side, pravastatin 47 μM, emodin 185 μM on mucosal side, read-out: Papp M-S in the presence of emodin); 70.3 ± 19.8 ×10⁻⁶ cm/s in data set [2] (pH 6.5, with emodin 185 μM on mucosal side, pravastatin 47 μM, emodin 185 μM on mucosal side, read-out: Papp S-M in the presence of emodin); 106 ± 40.3 ×10⁻⁶ cm/s in data set [2] (pH 6.5, with emodin 370 μM on mucosal side, pravastatin 47 μM, emodin 370 μM on mucosal side, read-out: Papp M-S in the presence of emodin); 90.8 ± 12.7 ×10⁻⁶ cm/s in data set [2] (pH 6.5, with emodin 370 μM on mucosal side, pravastatin 47 μM, emodin 370 μM on mucosal side, read-out: Papp S-M in the presence of emodin). The Papp at 47 μM in data set [2] (pH 6.5, with emodin 740 μM on mucosal side, pravastatin 47 μM, emodin 740 μM on mucosal side, read-out: Papp M-S in the presence of emodin) was found to be 93.8 ± 28.7 ×10⁻⁶ cm/s; in data set [2] (pH 6.5, with emodin 740 μM on mucosal side, pravastatin 47 μM, emodin 740 μM on mucosal side, read-out: Papp S-M in the presence of emodin), 105 ± 27.3 ×10⁻⁶ cm/s.
